Source: PMC5925751 (American journal of hematology, 2017)
“And” between values parts separate entries of the source, which are not always exact repeats. Equal values may be shown once.

Columns and labels:
patients with AML [1] = test: Efficacy: objective response by Cheson response criteria; assay type: in vivo, human
patients with AML [2] = test: Safety and tolerability; assay type: in vivo
[3] = test system: phosphorylated histone H3 (pHH3) in peripheral blood leukemic blasts; test: Pharmacodynamics: flow cytometric pHH3 assay in whole blood; assay type: in vivo, human; conditions: as early as 1 hour after treatment; regardless of dosing schedule; transient
[4] = Pharmacokinetics, plasma AMG 900 by LC-MS/MS after multiple oral administrations; assay type: in vivo; conditions: human
AML blasts = conditions: cited from earlier work
[5] = Total, all doses and schedules (n = 35)

Cc1csc(-c2nnc(Nc3ccc(Oc4ncccc4-c4ccnc(N)n4)cc3)c3ccccc23)c1 [AMG 900, N-(4-(3-(2-aminopyrimidin-4-yl)pyridin-2-yloxy)phenyl)-4-(4-methylthiophen-2-yl)p hthalazin-1-amine]
objective response rate (patients with AML [1]; all patients, any dose, either schedule, 80% confidence interval: 3%, 18%): 9% | duration of response (patients with AML [1]; individual values of the three responders, 1.5 months is a censored observation): 3 months and 1.5 months and < 1 months | Treatment-related adverse events by grade: Fatal (patients with AML [2]; 15 mg, 4 days on/10 days off (n = 4)): 0 (0) n (%) | Treatment-related adverse events by grade: Fatal (patients with AML [2]; 25 mg, 4 days on/10 days off (n = 3)): 0 (0) n (%) | Treatment-related adverse events by grade: Fatal (patients with AML [2]; 30 mg, 7 days on/7 days off (n = 3)): 0 (0) n (%) | Treatment-related adverse events by grade: Fatal (patients with AML [2]; 40 mg, 4 days on/10 days off (n = 7)): 1 (14) n (%) | Treatment-related adverse events by grade: Fatal (patients with AML [2]; 40 mg, 7 days on/7 days off (n = 4)): 0 (0) n (%) | Treatment-related adverse events by grade: Fatal (patients with AML [2]; 50 mg, 7 days on/7 days off (n = 6)): 1 (17) n (%) | Treatment-related adverse events by grade: Fatal (patients with AML [2]; 60 mg, 4 days on/10 days off (n = 4)): 0 (0) n (%) | Treatment-related adverse events by grade: Fatal (patients with AML [2]; 80 mg, 4 days on/10 days off (n = 3)): 0 (0) n (%) | Treatment-related adverse events by grade: Fatal (patients with AML [2]; 100 mg, 4 days on/10 days off (n = 1)): 0 (0) n (%) | Grade ≥ 3 treatment-related adverse events: Device-related infection (patients with AML [2]; [5]): 2 (6) n (%) | Grade ≥ 3 treatment-related adverse events: Septic shock (patients with AML [2]; [5]): 2 (6) n (%) | Treatment-related adverse events by grade: Fatal (patients with AML [2]; [5]): 2 (6) n (%) | Treatment-related adverse events, all grades: Mucosal inflammation (patients with AML [2]; [5]): 4 (11) n (%) | Treatment-related adverse events, all grades: Nausea (patients with AML [2]; [5]): 11 (31) n (%) | Treatment-related adverse events, all grades: Rash (patients with AML [2]; [5]): 4 (11) n (%) | Treatment-related adverse events, all grades: Vomiting (patients with AML [2]; [5]): 6 (17) n (%) | maximum tolerated dose (MTD) (patients with AML [2]; either dosing schedule): not formally reached | Any treatment-related adverse events (patients with AML [2]; human, in vivo): 30 (86) n (%) | Grade ≥ 3 treatment-related adverse events: Diarrhea (patients with AML [2]; human, in vivo): 2 (6) n (%) | Grade ≥ 3 treatment-related adverse events: Febrile neutropenia (patients with AML [2]; human, in vivo): 10 (29) n (%) | Grade ≥ 3 treatment-related adverse events: Pancytopenia (patients with AML [2]; human, in vivo): 2 (6) n (%) | Grade ≥ 3 treatment-related adverse events: Thrombocytopenia (patients with AML [2]; human, in vivo): 2 (6) n (%) | Treatment-related adverse events by grade: Grade ≥ 3 (patients with AML [2]; human, in vivo): 16 (46) n (%) | Treatment-related adverse events by grade: Grade ≥ 4 (patients with AML [2]; human, in vivo): 5 (14) n (%) | Treatment-related adverse events, all grades: Alopecia (patients with AML [2]; human, in vivo): 5 (14) n (%) | Treatment-related adverse events, all grades: Diarrhea (patients with AML [2]; human, in vivo): 10 (29) n (%) | Treatment-related adverse events, all grades: Dyspnea (patients with AML [2]; human, in vivo): 4 (11) n (%) | Treatment-related adverse events, all grades: Epistaxis (patients with AML [2]; human, in vivo): 4 (11) n (%) | Treatment-related adverse events, all grades: Fatigue (patients with AML [2]; human, in vivo): 8 (23) n (%) | Treatment-related adverse events, all grades: Febrile neutropenia (patients with AML [2]; human, in vivo): 10 (29) n (%) | median (range) duration of febrile neutropenia (patients with AML [2]; human, in vivo): 8 (1, 45) days | serious treatment-related AE: device-related infection (patients with AML [2]; human, in vivo): 6% | serious treatment-related AE: febrile neutropenia (patients with AML [2]; human, in vivo): 26% | serious treatment-related AE: septic shock (patients with AML [2]; human, in vivo): 6% | treatment-related AE, any grade: alopecia (patients with AML [2]; human, in vivo): 14% | treatment-related AE, any grade: nausea (patients with AML [2]; human, in vivo): 31% | treatment-related AE, any grade: vomiting (patients with AML [2]; human, in vivo): 17% | tolerability of highest dose evaluated (patients with AML [2]; in vivo): tolerated | patients with serious treatment-related AEs (patients with AML [2]; overall, 11 patients): 31% | patients who discontinued AMG 900 treatment due to AEs (patients with AML [2]; overall, five patients): 14% | patients who died during the study (patients with AML [2]; overall, nine patients, two deaths considered treatment-related): 26% | inhibition of pHH3 expression in whole blood [3]: clear inhibition of pHH3 expression | AUC(0-t) ([4]; 15 mg): 1380 ng·h/mL | Cmax ([4]; 15 mg): 501 ng/mL | AUC(0-t) ([4]; 25 mg): 2740 ng·h/mL | Cmax ([4]; 25 mg): 951 ng/mL | AUC(0-t) ([4]; 40 mg): 4360 ng·h/mL | Cmax ([4]; 40 mg): 1600 ng/mL | AUC(0-t) ([4]; 60 mg): 5620 ng·h/mL | Cmax ([4]; 60 mg): 1890 ng/mL | AUC(0-t) ([4]; 80 mg): 3210 ng·h/mL | Cmax ([4]; 80 mg): 1430 ng/mL | AUC(0-t) ([4]; 100 mg): 10200 ng·h/mL | Cmax ([4]; 100 mg): 3670 ng/mL

COc1cc(Nc2ncc3c(n2)-c2ccc(Cl)cc2C(c2c(F)cccc2OC)=NC3)ccc1C(=O)O [MLN8237]
apoptosis of AML blasts (AML blasts): induced apoptosis | proliferation of AML blasts (AML blasts): inhibited proliferation
